{"source": "paper PMC5693111", "about": "“Small molecule Photoregulin3 prevents retinal degeneration in the Rho^P23H mouse model of retinitis pigmentosa” (eLife, 2017)", "target": "T1, NR2E3 (Homo sapiens, UniProt Q9Y5X4)", "T1 construct": "aa 90–410 (expressed as His8-MBP-TEV fusion, tag removed)", "T1 sequence (Q9Y5X4 90-410)": "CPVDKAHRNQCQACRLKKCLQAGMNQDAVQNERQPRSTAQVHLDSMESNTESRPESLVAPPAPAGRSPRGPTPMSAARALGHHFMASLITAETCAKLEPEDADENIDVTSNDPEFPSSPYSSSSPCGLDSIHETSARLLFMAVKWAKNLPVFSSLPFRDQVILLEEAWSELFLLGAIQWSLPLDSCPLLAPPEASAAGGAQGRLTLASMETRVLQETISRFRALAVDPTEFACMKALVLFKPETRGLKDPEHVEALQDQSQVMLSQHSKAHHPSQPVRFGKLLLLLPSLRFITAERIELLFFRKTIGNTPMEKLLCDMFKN", "experiment": "isothermal titration calorimetry ([…] PR3 injected into […] NR2E3; one site model, qualitative)", "assay_type": "binding", "data": [{"compound": "COc1cc2nc(CN3CC=C(c4ccccc4)CC3)nc(O)c2cc1OC", "note": "[PR3, Photoregulin3]", "values": [{"measurement": "Kd", "value": "~67", "unit": "µM"}]}]}
